Non-standard residues stand in square brackets, D forms with d. No end group written: not given here. pY = N[C@@H](Cc1ccc(OP(=O)(O)O)cc1)C(=O)O

The results in this text go back to publication PMC7934871 (JCI Insight, 2021).

For one assay, the system named is HCT116 cells. In words: Cell proliferation assay (CellTiter-Glo). In kind it is cell-based, human. The note with it: HCT116, 10 μg/mL (approximately 1 μM) every day, day 7, CellTiter-Glo. An excerpt:
Figure 3 PS-acet.-STAT3 peptide inhibits STAT3 activity and downregulates the expression of STAT3 targets. (A) Downregulation of STAT3 activity and its downstream target proteins shown in human HCT116 colorectal cancer cells by Western blotting (data represent 1 of the 3 experiments, n = 3). PO-acet.-STAT3 and PS-STAT3-K685R peptides were used in parallel as controls. (B) STAT3 inhibition regulated the expression of proliferation and apoptotic genes, assessed by real-time quantitative PCR. Data present mean ± SD, n = 3 independent experiments, 1-way ANOVA; ***P < 0.005; **P < 0.01. […] For p53 promoter assay, data represent 3 replicates in 3 independent experiments (n = 9). For cell proliferation assay, data represent 3 independent experiments. SD is shown (n = 3). One-way ANOVA; ***P < 0.005; **P < 0.01.
HCT116 cells were seeded in a 96-well plate at a density of 6000/well. Starting the following day, cells were treated every day with 10 μg/mL (approximately 1 μM) PO- or PS-peptides. On day 7, cell proliferation was measured based on ATP production using bioluminescence detection kit for ATP measurement (CellTiter-Glo, Promega), according to manufacturer’s instruction.
(In general: ATP-based viability assays read luminescence as a measure of living cells.)

A further assay deals with STAT3 signaling. Briefly: Gene expression of STAT3 targets by quantitative PCR. It counts as cell-based. The note with it: 1 μM, with or without IL-6 stimulation, n = 3. As for the experimental part: Figure 8 PS-Gp130 and PS-MYC blocking peptides efficiently internalize into tumor cells to exert their functions. (A) For 1 hour 1 μM of PS-conjugated MYC (PS-MYC) and Gp130 (PS-Gp130) were incubated with cancer cells. PS-scramble MYC (PS-SC-MYC) was used as a control for PS-MYC. The peptide uptake was visualized by confocal microscopy and quantified by flow cytometry. Data are representative of 3 independent experiments (n = 3). (B) Upper panel: The binding of PS-Gp130 and STAT3 was examined by immunoprecipitation and Western blotting. PO-Gp130 was used as a control. For 4 hours prior to harvest, 1 μM of peptide was incubated with cells. […] (C) Gene expression of STAT3 targets was examined by quantitative PCR after the treatment with 1 μM of PS-Gp130 with or without IL-6 stimulation as described above. […] (D) A total of 1 μM of PS-SC-MYC or PS-MYC was incubated with cells for 48 hours before the gene expression of MYC targets was examined by quantitative PCR. […]
Total RNA was extracted from cultured or tumor tissues using RNeasy kit (QIAGEN), according to manufacturer’s instruction. After cDNA synthesis using iScript cDNA Synthesis kit (Bio-Rad), samples were analyzed using pairs of primers specific for CASP9, CASP3, CASP8, BIRC5, BCL2L1, MYC, TP53, VEGF, IL1B, SERPIN3, FGA, CDK4, CCND2, CDKN2A, CDKN2B, GADD45A, mCD274, mMmp9, and mBirc5, as indicated. […]

“PDIPKEEAFGK685(Ac)YCRPESQEHPC-linker-T*C*C*A*T*G*A*G*C*T*T*C*C*T*G*A*T*G*C*T [PS-acet.-STAT3 peptide]”: the cell proliferation entry in the assay with HCT116 cells was “decrease”. Take “PS-Gp130: PS-conjugated Gp130 peptide (amino acids 901–910) with phospho-Tyr905 (MPKS[pY]LPQTV; also: phosphorothioate oligonucleotide conjugate; UniProt P40189 901-910, looked up, fragment)”: the “STAT3 signaling (gene expression of STAT3 targets)” value with STAT3 signaling is “significantly blocked”.
